# Test results taken from patent publication US20260109707A1, “HETEROBIFUNCTIONAL COMPOUNDS AND METHODS OF TREATING DISEASE” (Halda Therapeutics OpCo. Inc., priority 2022, published 2026).
# Read-outs that look alike come from different tables or passages of the source.
# How the values were obtained:
# [1] = tested on: T-Rex 293 cell line SC3 cells having increased expression of androgen receptor protein due to exposure to doxycycline; test: Cellular growth inhibition assay, T-Rex 293 SC3 cells with doxycycline (CellTiter-Glo, 72 hours); assay type: cell-based; details: T-Rex 293 SC3 cells with increased androgen receptor expression due to doxycycline (10 ng/mL)
# In short: (§1)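 Doxycycline (10 ng/mL) was either included or omitted to toggle wild-type androgen receptor expression in SC3 cells, a T-Rex 293 clone, grown in stripped-serum, phenol red-free medium. After 72 hours with compound, viable cells were quantified by CellTiter-Glo 2.0.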
# [2] = tested on: T-Rex 293 cell line SC3 cells lacking increased expression of androgen receptor protein; test: Cellular growth inhibition assay, T-Rex 293 SC3 cells without doxycycline (CellTiter-Glo, 72 hours); assay type: cell-based; details: T-Rex 293 cell line SC3 cells not exposed to doxycycline (lacking increased androgen receptor expression)
# In short: as §1
# VCaP cells = test: Cellular growth inhibition assay for VCaP cells (CellTiter-Glo, 72 hours); assay type: cell-based, human
# In short: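 Luminescent viability signal after 72 h of compound exposure gave GI50 values by four-parameter nonlinear regression. Compounds were added in 0.5% DMSO to cells plated 24 h earlier at 5000/well in DMEM containing 10% FBS.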
# T47D cells = test: Cellular growth inhibition assay for T47D cells (CellTiter-Glo, 72 hours); assay type: cell-based, human; details: 72 hours treatment
# In short: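 Growth inhibition as GI50, fitted with four parameters to CellTiter-Glo luminescence after 72 h of compound exposure (0.5% DMSO). Cells were T47D, grown in insulin-supplemented (0.2 units/mL) DMEM with 10% FBS and treated one day post-seeding.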
SMILES,GI50 ([1]; 72 h) [µM],GI50 ([2]; 72 h) [µM],"GI50 (VCaP cells; Homo sapiens, VCaP, 72 h) [µM]","GI50 (T47D cells; Homo sapiens, T47D, 72 h) [µM]",GI50 [1] [µM],GI50 [2] [µM],GI50 (VCaP cells) [µM],GI50 (T47D cells) [µM]
CCNC(=O)C[C@@H]1N=C(c2ccc(N3CCN(C4CN(c5ccc(C(=O)N[C@H]6CC[C@H](Oc7ccc(C#N)c(Cl)c7)CC6)nn5)C4)CC3)cc2)c2c(sc(C)c2C)-n2c(C)nnc21 [I-41],< 0.5,0.5 to 1.5,< 0.5,< 0.5,–,–,–,–
[2H]C([2H])(c1ccc(C2=N[C@@H](Cc3ncco3)c3nnc(C)n3-c3sc(C)c(C)c32)cc1)N1CCC2(CCCN(c3ccc(C(=O)N[C@H]4CC[C@H](Oc5ccc(C#N)c(Cl)c5)CC4)nn3)C2)C1 (stereo partly drawn) [I-389],< 0.5,1.5 to 3,< 0.5,0.5 to 1.5,–,–,–,–
Cc1sc2c(c1C)C(c1ccc(CC3CN(CC4CCN(c5ccc(C(=O)N[C@H]6CC[C@H](Oc7ccc(C#N)c(Cl)c7)CC6)nn5)CC4)C3)cc1)=N[C@H](Cc1ncco1)c1nnc(C)n1-2 [I-114],< 0.5,1.5 to 3,0.5 to 1.5,0.5 to 1.5,–,–,–,–
Cc1sc2c(c1C)C(c1ccc(C[C@H]3C[C@@]4(CCCN(c5ccc(C(=O)N[C@H]6CC[C@H](Oc7ccc(C#N)c(Cl)c7)CC6)nn5)C4)C3)cc1)=N[C@@H](C)c1nnc(C)n1-2 [I-351],< 0.5,> 3,1.5 to 3,> 3,–,–,–,–
Cc1sc2c(c1C)C(c1ccc(CC(=O)N3CCN(c4ccc(C(=O)N[C@H]5CC[C@H](Oc6ccc(C#N)c(Cl)c6)CC5)nn4)CC3)cc1)=N[C@@H](Cc1ncco1)c1nnc(C)n1-2 [I-319],< 0.5,> 3,< 0.5,< 0.5,–,–,–,–
CCNC(=O)C[C@@H]1N=C(c2ccc(OC3CN(c4ccc(C(=O)N[C@H]5CC[C@H](Oc6ccc(C#N)c(Cl)c6)CC5)nn4)C3)cc2)c2c(sc(C)c2C)-n2c(C)nnc21 [I-47],< 0.5,0.5 to 1.5,0.5 to 1.5,0.5 to 1.5,–,–,–,–
Cc1sc2c(c1C)C(c1ccc(O[C@H]3C[C@@]4(CCCN(c5ccc(C(=O)N[C@H]6CC[C@H](Oc7ccc(C#N)c(Cl)c7)CC6)nn5)C4)C3)cn1)=N[C@@H](Cc1ncco1)c1nnc(C)n1-2 [I-261],< 0.5,< 0.5,< 0.5,< 0.5,–,–,–,–
Cc1sc2c(c1C)C(c1ccc(OC[C@H]3C[C@@]4(CCCN(c5ccc(C(=O)N[C@H]6CC[C@H](Oc7ccc(C#N)c(Cl)c7)CC6)nn5)C4)C3)cc1)=N[C@@H](C)c1nnc(C)n1-2 [I-310],< 0.5,> 3,< 0.5,0.5 to 1.5,–,–,–,–
Cc1sc2c(c1C)C(c1ccc(CC[C@@H]3CCCN(c4ccc(C(=O)N[C@H]5CC[C@H](Oc6ccc(C#N)c(Cl)c6)CC5)nn4)C3)cc1)=N[C@@H](Cc1ncco1)c1nnc(C)n1-2 [I-255],< 0.5,< 0.5,< 0.5,0.5 to 1.5,–,–,–,–
Cc1sc2c(c1C)C(c1ccc(CCC[C@@H]3CCCN(c4ccc(C(=O)N[C@H]5CC[C@H](Oc6ccc(C#N)c(Cl)c6)CC5)nn4)CC3)cc1)=N[C@@H](Cc1ncco1)c1nnc(C)n1-2 [I-411],< 0.5,< 0.5,< 0.5,< 0.5,–,–,–,–
CCNC(=O)C[C@@H]1N=C(c2ccc(N(C)CC3CN(c4ccc(C(=O)N[C@H]5CC[C@H](Oc6ccc(C#N)c(Cl)c6)CC5)nn4)C3)cc2)c2c(sc(C)c2C)-n2c(C)nnc21 [I-30],< 0.5,0.5 to 1.5,< 0.5,0.5 to 1.5,–,–,–,–
Cc1sc2c(c1C)C(c1ccc(N3CC4(C3)CC3(CCN(c5ccc(C(=O)N[C@H]6CC[C@H](Oc7ccc(C#N)c(Cl)c7)CC6)nn5)CC3)C4)cc1)=N[C@@H](Cc1ncco1)c1nnc(C)n1-2 [I-348],< 0.5,> 3,< 0.5,< 0.5,–,–,–,–
Cc1sc2c(c1C)C(c1ccc(O[C@@H]3CC[C@@]4(CCCN(c5ccc(C(=O)N[C@H]6CC[C@H](Oc7ccc(C#N)c(Cl)c7)CC6)nn5)C4)C3)nc1)=N[C@@H](Cc1ncco1)c1nnc(C)n1-2 [I-287],–,–,–,–,< 0.5,< 0.5,< 0.5,0.5 to 1.5
Cc1sc2c(c1C)C(c1ccc(OC3CN(CC4CCN(c5ccc(C(=O)N[C@H]6CC[C@H](Oc7ccc(C#N)c(Cl)c7)CC6)nn5)CC4)C3)cc1)=N[C@@H](Cc1ncco1)c1nnc(C)n1-2 [I-81],< 0.5,–,< 0.5,–,–,> 3,–,> 3
Cc1sc2c(c1C)C(c1ccc(C(=O)N(C)CCCc3ccc(C(=O)N[C@H]4CC[C@H](Oc5ccc(C#N)c(Cl)c5)CC4)nn3)cc1)=N[C@H](Cc1ncco1)c1nnc(C)n1-2 [I-321],< 0.5,> 3,< 0.5,1.5 to 3,–,–,–,–
Cc1sc2c(c1C)C(c1ccc(OC[C@H]3C[C@]4(CCCN(c5ccc(C(=O)N[C@H]6CC[C@H](Oc7ccc(C#N)c(Cl)c7)CC6)nn5)C4)C3)cc1)=N[C@@H](Cc1ncco1)c1nnc(C)n1-2 [I-206],–,–,–,–,0.5 to 1.5,> 3,> 3,> 3
Cc1sc2c(c1C)C(c1ccc(C(=O)N3CCN(CCc4ccc(C(=O)N[C@H]5CC[C@H](Oc6ccc(C#N)c(Cl)c6)CC5)nn4)CC3)cc1)=N[C@H](Cc1ncco1)c1nnc(C)n1-2 [I-314],0.5 to 1.5,> 3,0.5 to 1.5,1.5 to 3,–,–,–,–
Cc1sc2c(c1C)C(c1ccc(OC[C@H]3C[C@@]4(CCCN(c5ccc(C(=O)N[C@H]6CC[C@H](Oc7ccc(C#N)c(Cl)c7)CC6)nn5)C4)C3)cc1)=N[C@@H](Cc1ncco1)c1nnc(C)n1-2 [I-105],< 0.5,< 0.5,< 0.5,< 0.5,–,–,–,–
Cc1sc2c(c1C)C(c1ccc(CCC3CCC4CN(c5ccc(C(=O)N[C@H]6CC[C@H](Oc7ccc(C#N)c(Cl)c7)CC6)nn5)CCN4C3)cc1)=NC(Cc1ncco1)c1nnc(C)n1-2 (stereo partly drawn) [I-404],–,–,–,–,< 0.5,< 0.5,< 0.5,< 0.5
Cc1sc2c(c1C)C(c1ccc(C#CC3CC4(C3)CN(c3ccc(C(=O)N[C@H]5CC[C@H](Oc6ccc(C#N)c(Cl)c6)CC5)nn3)C4)cc1)=N[C@@H](Cc1ncco1)c1nnc(C)n1-2 [I-138],< 0.5,< 0.5,< 0.5,< 0.5,–,–,–,–
Cc1sc2c(c1C)C(c1ccc(CCCN3CCCN(c4ccc(C(=O)N[C@H]5CC[C@H](Oc6ccc(C#N)c(Cl)c6)CC5)nn4)CC3)cc1)=N[C@@H](Cc1ncco1)c1nnc(C)n1-2 [I-126],< 0.5,< 0.5,< 0.5,< 0.5,–,–,–,–
Cc1sc2c(c1C)C(c1ccc(CCC[C@H]3CCCN(c4ccc(C(=O)N[C@H]5CC[C@H](Oc6ccc(C#N)c(Cl)c6)CC5)nn4)C3)cc1)=N[C@@H](C)c1nnc(C)n1-2 [I-323],< 0.5,0.5 to 1.5,< 0.5,0.5 to 1.5,–,–,–,–
Cc1sc2c(c1C)C(c1ccc(CC3CC4(CCN(c5ccc(C(=O)N[C@H]6CC[C@H](Oc7ccc(C#N)c(Cl)c7)CC6)nn5)CC4)C3)nc1)=N[C@@H](Cc1ncco1)c1nnc(C)n1-2 [I-347],< 0.5,< 0.5,< 0.5,< 0.5,–,–,–,–
Cc1sc2c(c1C)C(c1ccc(CO[C@H]3C[C@@]4(CCCN(c5ccc(C(=O)N[C@H]6CC[C@H](Oc7ccc(C#N)c(Cl)c7)CC6)nn5)C4)C3)cc1)=N[C@@H](C)c1nnc(C)n1-2 [I-353],< 0.5,> 3,< 0.5,0.5 to 1.5,–,–,–,–
Cc1sc2c(c1C)C(c1ccc(N3CCC4(CC3)CC(Cc3ccc(C(=O)N[C@H]5CC[C@H](Oc6ccc(C#N)c(Cl)c6)CC5)nn3)C4)cc1)=NC(Cc1ncco1)c1nnc(C)n1-2 (stereo partly drawn) [I-415],< 0.5,–,< 0.5,0.5 to 1.5,–,> 3,–,–
Cc1sc2c(c1C)C(c1ccc([C@H]3CCN(C(=O)[C@@H]4CCCN(c5ccc(C(=O)N[C@H]6CC[C@H](Oc7ccc(C#N)c(Cl)c7)CC6)nn5)C4)C3)cc1)=N[C@@H](Cc1ncco1)c1nnc(C)n1-2 [I-342],< 0.5,< 0.5,< 0.5,< 0.5,–,–,–,–
Cc1sc2c(c1C)C(c1ccc([C@H]3CC[C@@]4(C3)CN(c3ccc(C(=O)N[C@H]5CC[C@H](Oc6ccc(C#N)c(Cl)c6)CC5)nn3)CCO4)cc1)=N[C@@H](Cc1ncco1)c1nnc(C)n1-2 [I-364],< 0.5,> 3,< 0.5,< 0.5,–,–,–,–
Cc1sc2c(c1C)C(c1ccc(C#CC3CC4(C3)CN(c3ccc(C(=O)N[C@H]5CC[C@H](Oc6ccc(C#N)c(Cl)c6)CC5)nn3)C4)cc1)=N[C@@H](C)c1nnc(C)n1-2 [I-311],< 0.5,< 0.5,< 0.5,< 0.5,–,–,–,–
Cc1sc2c(c1C)C(c1ccc(O[C@@H]3CC[C@@]4(CCCN(c5ccc(C(=O)N[C@H]6CC[C@H](Oc7ccc(C#N)c(Cl)c7)CC6)nn5)C4)C3)nc1)=N[C@@H](Cc1ncco1)c1nnc(C)n1-2 [I-285],< 0.5,–,< 0.5,–,–,> 3,–,1.5 to 3
Cc1sc2c(c1C)C(c1ccc(C[C@H]3C[C@H]([C@H]4CCCN(c5ccc(C(=O)N[C@H]6CC[C@H](Oc7ccc(C#N)c(Cl)c7)CC6)nn5)C4)C3)cc1)=N[C@@H](Cc1ncco1)c1nnc(C)n1-2 [I-131],< 0.5,< 0.5,< 0.5,0.5 to 1.5,–,–,–,–
